Reference: USRE36481E, “HMG-CoA reductase inhibitors” (Merck & Co., Inc., priority 1998, dated 2000)

tested on: HMG-CoA reductase; experiment: HMG-CoA Reductase Inhibition Assay (in vitro, relative to compactin); assay type: biochemical; conditions: IC50 compared with compactin determined simultaneously, compactin assigned 100; tested as sodium salt of dihydroxy acid form; solubilized rat liver microsomal enzyme
Procedure: The intrinsic HMG-CoA reductase inhibition activity of the claimed compounds is measured in the in vitro protocol published in J. Med. Chem., 28, p. […] (1985) and described below: Male Holtzman Sprague-Dawley rats (225-250 g) were kept on reversed lighting and fed Purina rat chow containing 3% cholestyramine for 7 days preceding their sacrifice by CO2 asphyxiation. Livers were removed 6 hours into the dark cycle and used immediately to prepare microsomes. HMG-CoA reductase was solubilized from the freshly prepared microsomes by the method of Heller and Shrewsbury [J. Biol. Chem., 1976, 251, 3815]and purified through the second ammonium sulfate precipitation step as described by Kleinsek et al. [Proc. Natl. Acad. Sci. USA, 1977, 74, 1431]. […] The enzyme preparation was stored at -80° C. The assay is essentially the procedure of Shefer et al. [J. Lipid Res., 1972, 13, 402]. The complete assay medium contained the following in a total volume of 0.8 ml: phosphate buffer, pH 7.2, 100 mM; MgCl2, 3 mM; NADP, 3 mM; glucose-6-phosphate, 10 mM; glucose-6-phosphate dehydro-genase, 3 enzyme units; reduced glutathione 50 mM; HMG-CoA (glutaryl-3-^14 C, New England Nuclear), 0.2 mM (0.1 μCi); and partially purified enzyme stock solution, 100 μL. […] After a 40-minute incubation at 37° C. with shaking and exposure to air, the reaction was stopped by the addition of 0.4 mL of 8 N HCl. After an additional 30-minute incubation period at 37° C. to ensure the complete lactonization of mevalonic acid to mevalonolactone, 0.2 ml of the mixture was added to an 0.5×5.0 cm column containing 100-200 mesh Bio-Rex 5, chloride form (Bio-Rad), wetted with distilled water, as described by Alberts et al. [Proc. Natl. Acad. Sci. U.S.A., 1980, 77, 3967]. The unreacted [^14 C]HMG-CoA was absorbed on the resin and the [^14 C]mevalonolactone was eluted with distilled water (2×1 ml) directly into 7-ml scintillation vials. Five milliliters of Aquasol-2 (New England Nuclear) was added to each vial, and radioactivity was measured in a Packard Tri Carb Prias scintillation counter. IC50 values were determined by plotting percentage inhibition against test compound concentration and fitting a straight line to the resulting data by using the least-squares method.

SMILES	Relative Potency
CCC(C)(C)C(=O)O[C@H]1C[C@@H](C(=O)N(C(=O)NC2CCCCC2)C2CCCCC2)C[C@@H]2CC[C@H](C)[C@H](CC[C@@H](O)C[C@@H](O)CC(=O)O)[C@H]21	100
CCC(C)(C)C(=O)O[C@H]1C[C@@H](C(=O)O)C[C@@H]2CC[C@H](C)[C@H](CC[C@@H](O)C[C@@H](O)CC(=O)O)[C@H]21 [-- -- -- S CO2 H 1,1-dimethylpropyl]	79
CCC(C)(C)C(=O)O[C@H]1C[C@H](C(=O)N(C)C)C=C2C=C[C@H](C)[C@H](CC[C@@H](O)C[C@@H](O)CC(=O)O)[C@H]21 [db -- db S CONMe2 1,1-dimethylpropyl]	82
CCN(CC)C(=O)[C@@H]1C=C2C=C[C@H](C)[C@H](CC[C@@H](O)C[C@@H](O)CC(=O)O)[C@H]2[C@@H](OC(=O)C(C)(C)CC)C1 [db -- db S CONEt2 1,1-dimethylpropyl]	65
CCC(C)(C)C(=O)O[C@H]1C[C@@H](C(C)O)C[C@@H]2CC[C@H](C)[C@H](CC[C@@H](O)C[C@@H](O)CC(=O)O)[C@H]21 (single isomer, unassigned) [-- -- -- S CHOHCH3 (ISOMER B) 1,1-dimethylpropyl]	113
CCC(C)(C)C(=O)O[C@H]1C[C@@H](C(=O)O)C=C2C=C[C@H](C)[C@H](CC[C@@H](O)C[C@@H](O)CC(=O)O)[C@H]21 [db -- db R CO2 H 1,1-dimethylpropyl]	94
CCC(C)(C)C(=O)O[C@H]1C[C@H](COC(=O)Nc2ccccc2)C=C2C=C[C@H](C)[C@H](CC[C@@H](O)C[C@@H](O)CC(=O)O)[C@H]21	726
CCC(C)(C)C(=O)O[C@H]1C[C@@H](C(=O)OC(C)C)C[C@@H]2CC[C@H](C)[C@H](CC[C@@H](O)C[C@@H](O)CC(=O)O)[C@H]21 [-- -- -- S CO2 i-Pr 1,1-dimethylpropyl]	80
CCC(C)(C)C(=O)O[C@H]1C[C@@H](C(C)O)C[C@@H]2CC[C@H](C)[C@H](CC[C@@H](O)C[C@@H](O)CC(=O)O)[C@H]21 (single isomer, unassigned) [-- -- -- S CHOHCH3 (ISOMER A) 1,1-dimethylpropyl]	131
CCC(C)(C)C(=O)O[C@H]1C[C@@H](C(N)=O)C[C@@H]2CC[C@H](C)[C@H](CC[C@@H](O)C[C@@H](O)CC(=O)O)[C@H]21 [-- -- -- S CONH2 1,1-dimethylpropyl]	107
CCC(C)(C)C(=O)O[C@H]1C[C@H](C(C)O)C[C@@H]2CC[C@H](C)[C@H](CC[C@@H](O)C[C@@H](O)CC(=O)O)[C@H]21 (single isomer, unassigned) [-- -- -- R CHOHCH3 (ISOMER B) 1,1-dimethylpropyl]	104

Other lines, results leading:

Relative Potency	SMILES
86	CCC(C)(C)C(=O)O[C@H]1C[C@@H](CO)C[C@@H]2CC[C@H](C)[C@H](CC[C@@H](O)C[C@@H](O)CC(=O)O)[C@H]21 [-- -- -- S CH2 OH 1,1-dimethylpropyl]
213	CCC(C)(C)C(=O)O[C@H]1C[C@@H](CO)C=C2CC[C@H](C)[C@H](CC[C@@H](O)C[C@@H](O)CC(=O)O)[C@H]21 [db -- -- R CH2 OH 1,1-dimethylpropyl]
100	CCC(C)(C)C(=O)OC[C@H]1C[C@@H]2CC[C@H](C)[C@H](CC[C@@H](O)C[C@@H](O)CC(=O)O)[C@H]2[C@@H](OC(=O)C(C)(C)CC)C1
189	CCC(C)(C)C(=O)O[C@H]1C[C@H](CO)C=C2C=C[C@H](C)[C@H](CC[C@@H](O)C[C@@H](O)CC(=O)O)[C@H]21 [db -- db S CH2 OH 1,1-dimethylpropyl]
125	CCOC(=O)[C@H]1C[C@@H]2CC[C@H](C)[C@H](CC[C@@H](O)C[C@@H](O)CC(=O)O)[C@H]2[C@@H](OC(=O)C(C)(C)CC)C1 [-- -- -- S CO2 Et 1,1-dimethylpropyl]
47	CCC(C)C(=O)O[C@H]1C[C@@H](CO)C=C2C=C[C@H](C)[C@H](CC[C@@H](O)C[C@@H](O)CC(=O)O)[C@H]21 (stereo partly shown) [db -- db R CH2 OH sec-butyl]
99	CCC(C)(C)C(=O)O[C@H]1C[C@H](C(=O)O)C=C2C=C[C@H](C)[C@H](CC[C@@H](O)C[C@@H](O)CC(=O)O)[C@H]21 [db -- db S CO2 H 1,1-dimethylpropyl]
33	C[C@H]1CC[C@H]2C[C@H](CO)C[C@H](OC(=O)C3CCCCC3)[C@@H]2[C@H]1CC[C@@H](O)C[C@@H](O)CC(=O)O [-- -- -- S CH2 OH cyclohexyl]
26	CCC(C)C(=O)O[C@H]1C[C@H](C(=O)O)C=C2C=C[C@H](C)[C@H](CC[C@@H](O)C[C@@H](O)CC(=O)O)[C@H]21 (stereo partly shown) [db -- db S CO2 H sec-butyl]
75	CCC(C)(C)C(=O)O[C@H]1C[C@@H](C(=O)N(C)C)C[C@@H]2CC[C@H](C)[C@H](CC[C@@H](O)C[C@@H](O)CC(=O)O)[C@H]21 [-- -- -- S CONMe2 1,1-dimethylpropyl]
111	CCC(C)(C)C(=O)O[C@H]1C[C@H](C(C)O)C[C@@H]2CC[C@H](C)[C@H](CC[C@@H](O)C[C@@H](O)CC(=O)O)[C@H]21 (single isomer, unassigned) [-- -- -- R CHOHCH3 (ISOMER A) 1,1-dimethylpropyl]
33	CCC(C)(C)C(=O)OC[C@H]1C=C2CC[C@H](C)[C@H](CC[C@@H](O)C[C@@H](O)CC(=O)O)[C@H]2[C@@H](OC(=O)C(C)(C)CC)C1
220	CCC(C)(C)C(=O)O[C@H]1C[C@@H](C(O)c2ccccc2)C[C@@H]2CC[C@H](C)[C@H](CC[C@@H](O)C[C@@H](O)CC(=O)O)[C@H]21 (single isomer, unassigned) [-- -- -- S CHOHPH 1,1-dimethylpropyl]

tested on: not listed separately; experiment: Standing of the free dihydroxy acid (reversion to lactone); assay type: physicochemical; conditions: free dihydroxy acid after isolation; can be maintained by increasing the pH above 7.0
Procedure: The sodium salt of the compound II from Example 64 is dissolved in 2 ml of ethanol-water (1:1; v:v) and added to 10 ml of 1N hydrochloric acid from which the dihydroxy acid is extracted with ethyl acetate. The organic extract is washed once with water, dried (Na2 SO4), and evaporated in vacuo with a bath temperature not exceeding 30° C. […] The dihydroxy acid can be maintained by increasing the pH above 7.0.

SMILES	stability of the dihydroxy acid on standing
CCC(C)(C)C(=O)O[C@H]1C[C@@H](CO)C[C@@H]2CC[C@H](C)[C@H](CC[C@@H](O)C[C@@H](O)CC(=O)O)[C@H]21 [Example 70]	slowly reverts to the corresponding,parent lactone on standing
